We go through seven molecules from patent EP4621028A1, “FLUORESCENCE RECOVERY IN NANOGRAPHENE” (Max-Planck-Gesellschaft zur Förderung der Wissenschaften …, priority 2024, dated 2025).

A short description of data set [1]: Absorption and fluorescence in toluene. Type of data set: physicochemical. As to conditions: for molar extinction coefficient ε: at maximum absorption wavelength.
Data set [2] in a line: Solubility in water. As to conditions: room temperature. Type of data set: physicochemical. Here is the method:
In accordance with the present invention, the solubility and particularly the solubility of the compound having the general formula (1) or the general formula (2) in water at 23°C is measured as follows: 1 mg sample is weighed into an Erlenmeyer flask and is then mixed homogeneously with 4 ml of water with a spatula at 23°C. The remaining substance on the spatula is stripped off with a magnetic stirrer bar, which is then added to the Erlenmeyer flask. While stirring with a magnetic stirrer, water is added dropwise with a burette until the solution in the Erlenmeyer flask becomes clear at 23°C. After that, the solubility of compound in water is calculated by calculating the ratio of weighed compound divided by the volume of added water and then by recalculating this ratio to 1 I of water.

With “6,14-didodecyldibenzo[hi,st]ovalene [Example 2]”, in data set [1] (in toluene (10^-5 mol/L)), the fluorescence quantum yield is 0.85, the maximum absorption wavelength came out at 611 nm and the “molar extinction coefficient ε” value stood at 203000 M⁻¹ cm⁻¹.

Take `Cc1cccc(C)c1-c1c2cccc3c4ccc5ccc6c(-c7c(C)cccc7C)c7cccc8c9ccc%10ccc1c1c%10c9c9c(c78)c6c5c4c9c1c23` [Example 3, 6, 14-bis(dimethylphenyl)dibenzo[hi,st]ovalene]: the “absorption spectrum and emission spectrum” value in data set [1] is “narrow absorption spectrum as well as a narrow emission spectrum”. Further, the “molar extinction coefficient ε” value in data set [1] (in toluene (10^-5 mol/L)) amounted to 283000 M⁻¹ cm⁻¹.

For `COCCOCCOCCOCCOc1cc(-c2ccc3cc4cc5c(-c6c(C)cc(C)cc6C)cc6cc7c(-c8cc(OCCOCCOCCOCCOC)c(OCCOCCOCCOCCOC)c(OCCOCCOCCOCCOC)c8)ccc8cc9cc%10c(-c%11c(C)cc(C)cc%11C)cc%11cc2c3c2c%11c%10c3c9c(c87)c6c5c3c42)cc(OCCOCCOCCOCCOC)c1OCCOCCOCCOCCOC` [Example 5, 3,11-bis(3,4,5-tris(2,5,8,11-tetraoxatridecan-13-yloxy)phenyl)-6,14-dimesityldibenzo[hi, st]ovalene], the “solubility of this compound in water” value in data set [2] stood at 100 µg/mL.

`CC(C)[Si](C#Cc1c2cccc3c4ccc5ccc6c(C#C[Si](C(C)C)(C(C)C)C(C)C)c7cccc8c9ccc%10ccc1c1c%10c9c9c(c78)c6c5c4c9c1c23)(C(C)C)C(C)C` [Example 6, 6, 14-di(triisopropylsilylethynyl) dibenzo[hi,st]ovalene]: the “absorption spectrum and emission spectrum” value in data set [1] was “narrow absorption spectrum as well as a narrow emission spectrum”. For the same molecule, in data set [1] (in toluene (10^-5 mol/L)), the “molar extinction coefficient ε” value amounted to 61511 M⁻¹ cm⁻¹.

Take `CCCCCCCCCCCCOc1cc(-c2c3cccc4c5ccc6ccc7c(-c8cc(OCCCCCCCCCCCC)c(OCCCCCCCCCCCC)c(OCCCCCCCCCCCC)c8)c8cccc9c%10ccc%11ccc2c2c%11c%10c%10c(c89)c7c6c5c%10c2c34)cc(OCCCCCCCCCCCC)c1OCCCCCCCCCCCC` [Example 7, 6,14-bis[3,4,5-tris(dodecoxyl)phenyl]dibenzo[hi,st]ovalene]: in data set [1] (in toluene (10^-5 mol/L)), the “molar extinction coefficient ε” value was 385000 M⁻¹ cm⁻¹.

For the molecule `c1ccc(-c2c3cccc4c5ccc6ccc7c(-c8ccccc8)c8cccc9c%10ccc%11ccc2c2c%11c%10c%10c(c89)c7c6c5c%10c2c34)cc1` [Example 8, 6,14-diphenyldibenzo[hi,st]ovalene], in data set [1], the “absorption spectrum and emission spectrum” value is reported as “narrow absorption spectrum as well as a narrow emission spectrum”.

Take “N-hexyl fumaric acid imide group substituted 6,14-dimesityldibenzo[hi,st]ovalene [Example 9]”: the “absorption spectrum and emission spectrum” value in data set [1] was “narrow absorption spectrum as well as a narrow emission spectrum”.
